We go through 1 compound from patent US5780025A, “Compositions and methods for the synthesis and assay of enkephalinase” (Genentech, Inc., priority 1993, dated 1998).

SMILES strings stand for the structures.

This assay has as its target T1, purified rat kidney enkephalinase (Rattus norvegicus, UniProt P07861).
T1 construct: Rat kidney enkephalinase was purified to apparent homogeneity; from tissue; host or cells: rat kidney (male rats, membrane fraction, Triton X-100 solubilised)
T1 sequence (P07861 1-750): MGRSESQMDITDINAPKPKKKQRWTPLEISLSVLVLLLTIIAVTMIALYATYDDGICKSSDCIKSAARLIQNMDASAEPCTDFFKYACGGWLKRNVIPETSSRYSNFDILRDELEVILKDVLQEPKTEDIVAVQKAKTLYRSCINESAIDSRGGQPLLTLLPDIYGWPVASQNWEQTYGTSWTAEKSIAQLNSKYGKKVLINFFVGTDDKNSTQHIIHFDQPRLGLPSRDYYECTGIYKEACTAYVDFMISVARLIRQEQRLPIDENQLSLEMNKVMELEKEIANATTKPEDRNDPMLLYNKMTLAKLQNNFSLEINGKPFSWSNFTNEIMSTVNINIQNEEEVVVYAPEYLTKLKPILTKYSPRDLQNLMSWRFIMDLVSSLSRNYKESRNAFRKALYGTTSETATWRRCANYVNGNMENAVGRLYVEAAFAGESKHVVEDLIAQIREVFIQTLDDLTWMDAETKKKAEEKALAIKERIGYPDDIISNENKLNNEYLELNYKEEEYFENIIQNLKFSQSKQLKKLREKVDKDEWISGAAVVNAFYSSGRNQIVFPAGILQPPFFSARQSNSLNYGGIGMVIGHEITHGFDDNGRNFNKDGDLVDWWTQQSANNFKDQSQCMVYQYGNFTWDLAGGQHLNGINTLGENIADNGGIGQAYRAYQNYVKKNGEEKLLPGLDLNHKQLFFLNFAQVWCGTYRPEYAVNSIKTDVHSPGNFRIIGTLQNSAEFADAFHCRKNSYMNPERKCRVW
Description: HPLC analysis of the hydrolysis of peptides by enkephalinase, without and with thiorphan. It is filed as biochemical. Particulars: 100 nM thiorphan; peptides 1 mM, 1 hr at 37° C., 5 ng enzyme.

As to `O=C(O)CNC(=O)C(CS)Cc1ccccc1` (stereo not shown) [Thiorphan], the “inhibition of the hydrolysis of all substrates” value is “completely inhibited”.
